Results from patent publication EP1590666B1, “COMPOSITIONS AND METHODS FOR ENHANCING APOPTOSIS” (GENENTECH, INC., priority 2003, dated 2004).

B1: ML-IAP-BIR (other, human, UniProt Q96CA5 63-179, looked up)
chain: TEEEEEEGAGATLSRGPAFPGMGSEELRLASFYDWPLTAEVPPELLAAAGFFHTGHQDKVRCFFCYGGLQSWKRGDDPWTEHAKWFPSCQFLLRSKGRDFVHSVQETHSQLLGSWDP
notes: range 63-179; Expressed in E. coli BL21(DE3) from pET15b-MLIAPBIR; also called BIR domain of ML-IAP; not shown: possible N-terminal tag from the pET15b vector (purified on Ni-agarose)

How the values were obtained:
XIAP-BIR2 = target: T1, XIAP-BIR2 (Homo sapiens, UniProt P98170, C202A/C213G); test: fluorescence polarization-based competition assay; assay type: binding; conditions: Table 3, positional scanning
T1 construct: X-IAP BIR2 (amino acid residues 124-240 with mutations C202A and C213G); made in house; host or cells: Escherichia coli BL21 (DE3)
Protocol: (§1) The apparent Kd values can be determined from the EC50 values.
(§2) The apparent Kd values were determined from the EC50 values. […] Samples were read after a 10-minute incubation.

ML-IAP-BIR = target: T2, ML-IAP-BIR (Homo sapiens, UniProt Q96CA5); test: fluorescence polarization-based competition assay; assay type: binding
T2 construct: made in house; host or cells: Escherichia coli BL21 (DE3)
T2 sequence (Q96CA5 63-179): B1 chain
Protocol: as §1, §2

XIAP-BIR3 = XIAP-BIR3 (Homo sapiens, UniProt P98170); test: fluorescence polarization-based competition assay; assay type: binding; parameters: X-IAP BIR3 (amino acids residues 241-356); made in house; host or cells: Escherichia coli BL21 (DE3)
Protocol: as §1, §2

[1] = target: the molecule itself; test: crystal structure, self-association

T1 sequence (P98170 124-240 C202A/C213G): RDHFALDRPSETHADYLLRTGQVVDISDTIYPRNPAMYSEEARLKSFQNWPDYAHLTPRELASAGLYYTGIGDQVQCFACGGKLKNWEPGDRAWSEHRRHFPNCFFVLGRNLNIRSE
XIAP-BIR3, sequence (P98170 241-356): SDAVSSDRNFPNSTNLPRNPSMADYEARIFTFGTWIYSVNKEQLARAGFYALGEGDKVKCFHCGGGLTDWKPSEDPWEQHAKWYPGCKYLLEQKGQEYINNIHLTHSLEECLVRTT

Row | Molecule | Ki (XIAP-BIR2) [µM] | Ki (ML-IAP-BIR) [µM] | Ki (XIAP-BIR3) [µM] | binding result [1]
1 | CC(C)[C@H](NC(=O)[C@H](C)N)C(=O)N1CCC[C@H]1C(=O)N[C@@H](Cc1ccc(I)cc1)C(=O)N[C@@H](C)C(=O)N[C@@H](CCC(N)=O)C(=O)N[C@@H](CCCCN)C(=O)N[C@@H](CO)C(=O)N[C@@H](CCC(=O)O)C(=O)O [AVPX10AQKSE] | 27.7 | 0.45 | 1 | –
2 | CC(C)[C@H](NC(=O)[C@H](C)N)C(=O)N1CCC[C@H]1C(=O)N[C@@H](Cc1ccc(S(=O)(=O)O)cc1)C(=O)N[C@@H](C)C(=O)N[C@@H](CCC(N)=O)C(=O)N[C@@H](CCCCN)C(=O)N[C@@H](CO)C(=O)N[C@@H](CCC(=O)O)C(=O)O [AVPX2AQKSE] | – | – | 8.5 | –
3 | CC(C)[C@H](NC(=O)[C@H](C)N)C(=O)N1CCC[C@H]1C(=O)N[C@@H](CC1CCCC1)C(=O)N[C@@H](C)C(=O)N[C@@H](CCC(N)=O)C(=O)N[C@@H](CCCCN)C(=O)N[C@@H](CO)C(=O)N[C@@H](CCC(=O)O)C(=O)O [AVPX7AQKSE] | 229 | 7.9 | – | –
4 | B1 | – | – | – | binds
